Laboratory results from paper PMC11118832 (Biomolecules, 2024).
Square brackets hold non-standard residues; d marks the D form. Ends that are not written are not given here. Peptide text beside a SMILES is read from it. Lys(Me) = CNCCCC[C@H](N)C(=O)O; hLeu = CC(C)CC[C@H](N)C(=O)O; Nle = CCCC[C@H](N)C(=O)O; Orn = NCCC[C@H](N)C(=O)O

Biological target: T1, PD-1/PD-L1 (Homo sapiens, UniProt Q15116)
T1 construct: this kit uses ectodomains of PD-1 and PD-L1 that are expressed with orthogonal fusion tags (Tag-1 and Tag-2); purchased CisBio (currently Perkin-Elmer, Bedford, MA)
T1 sequence (Q15116 25-170 limits assumed): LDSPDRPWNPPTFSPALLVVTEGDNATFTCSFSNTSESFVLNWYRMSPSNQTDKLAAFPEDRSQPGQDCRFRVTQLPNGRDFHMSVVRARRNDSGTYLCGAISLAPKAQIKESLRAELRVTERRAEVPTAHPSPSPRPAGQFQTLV
Test: In vitro time-resolved FRET PD-1/PD-L1 binding assay (CisBio kit)
Conditions: CisBio PD-1/PD-L1 binding kit, TR FRET, 96-well, serial dilutions in triplicate; NI = no inhibition at maximum concentration tested (* 5 μM, ** 50 μM); read-out: EC50 (Supplementary Table S1; inhibition of PD-1/PD-L1 binding by in vitro TR-FRET assay)
Procedure: Commercial PD-1/PD-L1 binding assay kit (CisBio, currently Perkin-Elmer, Bedford, MA) for time resolve fluorescent energy transfer (FRET) was used to assess peptides binding to PD-1. The assay for peptide screening was performed in a 96-well format (normal pressure), starting with 4-fold serial dilutions of each peptide in triplicate. No-peptide triplicate wells were used to assess fluorescent energy transfer in the absence of inhibition, and no-PD-1/PD-L1 triplicate wells were used to assess the background fluorescent energy transfer in the absence of PD-1/PD-L1 complexes. More detailed concentration dependences were obtained for selected peptides. Only freshly dissolved peptides were used in the assay. Various QSAR (quantitative structure activity relationship) hypotheses were tested by synthesizing batches of 10–12 peptides. In total, over one hundred candidates in ten iterations were screened for their ability to inhibit in vitro PD-1/PD-L1 binding using the commercial PD-1/PD-L1 binding assay kit (CisBio, currently Perkin-Elmer). Briefly, this kit uses ectodomains of PD-1 and PD-L1 that are expressed with orthogonal fusion tags (Tag-1 and Tag-2). It also includes two antibodies to selectively interact with these tags. The antibody against one tag is labeled with fluorescent moiety, which serves as a donor, while the other antibody is labeled with fluorescent moiety, which serves as an acceptor in fluorescent resonance energy transfer (FRET). When the complex is formed and probed with both anti-Tag-1 and anti-Tag-2 antibodies, donor and acceptor are sufficiently close, and FRET can be detected in a time-resolved (TR) manner. Inhibitors of PD-1/PD-L1 interactions prevent complex formation, leading to a decrease in TR FRET in a concentration-dependent manner, as shown in Figure 2 for four representative peptide inhibitors. Initial fourfold dilutions are exemplified by data for peptides B5.11 and B5.6 (panels A and B); examples of the more detailed follow-up concentration dependences are shown for peptides B2.4 and B2.22 (panels C and D). The potency of the inhibitors is then characterized by IC50, a concentration that inhibits TR FRET by 50%, allowing for a facile comparison of different inhibitors (Figure 2E).

EC50 [µM] | Molecule
> 5 | Ac-EVIVGAAWDYKY-NH2 [B5.12]
> 5 | CC[C@H](C)[C@H](NC(=O)[C@@H](NC(=O)[C@H](CC(=O)O)NC(C)=O)C(C)C)C(=O)N[C@H](C(=O)NCC(=O)N[C@@H](C)C(=O)N[C@@H](C)C(=O)N[C@@H](Cc1c[nH]c2ccccc12)C(=O)N[C@@H](CC(=O)O)C(=O)N[C@@H](CCCCNC)C(=O)N[C@@H](CCCCN)C(=O)N[C@@H](Cc1ccc(O)cc1)C(N)=O)C(C)C [B6.3] (Ac-DVIVGAAWD[Lys(Me)]KY-NH2)
> 5 | Ac-DVINGAAWDYKY-NH2 [B8.4]
> 5 | Ac-DVIDGAAHDYKY-NH2 [B8.21]
> 5 | CC(=O)N[C@H](CCC(=O)O)C(=O)N[C@@H](C)C(=O)N[C@@H](Cc1c[nH]c2ccccc12)C(=O)N[C@@H](CC(=O)O)C(=O)N[C@@H](Cc1ccc(O)cc1)C(=O)N[C@@H](CCCCN)C(=O)N[C@@H](Cc1ccc(O)cc1)C(N)=O [B9.5] (Ac-[dE]AWDYKY-NH2)
> 5 | Ac-DIIVGAAWDYKY-NH2 [B5.10]
> 5 | Ac-DAWDYKY-NH2 [B9.2]
> 5 | Ac-DLIDGAAWDYKY-NH2 [B8.15]
> 5 | Ac-DVIVGSAWDYKY-NH2 [B7.2]
> 5 | CC[C@H](C)[C@H](NC(=O)[C@H](CCC(C)C)NC(=O)[C@H](CC(=O)O)NC(C)=O)C(=O)N[C@@H](CC(=O)O)C(=O)NCC(=O)N[C@@H](C)C(=O)N[C@@H](C)C(=O)N[C@@H](Cc1c[nH]c2ccccc12)C(=O)N[C@@H](CC(=O)O)C(=O)N[C@@H](Cc1ccc(O)cc1)C(=O)N[C@@H](CCCCN)C(=O)N[C@@H](Cc1ccc(O)cc1)C(N)=O [B8.18] (Ac-D[hLeu]IDGAAWDYKY-NH2)
> 5 | Ac-DVIDPAAWDYKY-NH2 [B8.12]
> 5 | Ac-DVVDGAAWDYKY-NH2 [B8.3]
> 5 | CC(=O)N[C@H](CC(=O)O)C(=O)N[C@@H](C)C(=O)N[C@@H](Cc1c[nH]c2ccccc12)C(=O)N[C@@H](CC(=O)O)C(=O)N[C@@H](Cc1ccc(O)cc1)C(=O)N[C@@H](CCCCN)C(=O)N[C@@H](Cc1ccc(O)cc1)C(N)=O [B9.3] (Ac-[dD]AWDYKY-NH2)
> 5 | Ac-DDIVGAAWDYKY-NH2 [B7.6]
> 5 | Ac-EAWDYKY-NH2 [B9.4]

Further lines, the molecule ahead of its results:

Molecule | EC50 [µM]
Ac-LEIKGAEWDYKY-NH2 [B3.18] | > 50
CC(=O)N[C@@H](CCC(C)C)C(=O)N[C@H](C(=O)N[C@@H](Cc1c[nH]c2ccccc12)C(=O)N[C@H](C(=O)NCC(=O)N[C@@H](C)C(=O)N[C@@H](C)C(=O)N[C@@H](Cc1c[nH]c2ccccc12)C(=O)N[C@@H](CC(=O)O)C(=O)N[C@@H](CCCNC(=N)N)C(=O)N[C@@H](CCCCN)C(=O)N[C@@H](Cc1ccc(O)cc1)C(N)=O)C(C)C)C(C)C [B3.21] (Ac-[hLeu]VWVGAAWDRKY-NH2) | > 5
CCCC[C@H](NC(=O)[C@@H](NC(=O)[C@H](CCCC)NC(=O)[C@@H](NC(=O)[C@@H](N)CCCNC(=N)N)C(C)C)C(C)C)C(=O)N[C@H](C(=O)NCC(=O)N[C@@H](C)C(=O)N[C@@H](C)C(=O)N[C@@H](Cc1c[nH]c2ccccc12)C(=O)N[C@@H](CC(=O)O)C(=O)N[C@@H](Cc1ccc(O)cc1)C(=O)N[C@@H](CCCCN)C(=O)N[C@@H](Cc1ccc(O)cc1)C(=O)O)C(C)C [B4.8] (H-RV[Nle]V[Nle]VGAAWDYKY-OH; N-terminus and C-terminus assumed) | > 5
CC[C@H](C)[C@H](NC(=O)[C@H](CCC(C)C)NC(=O)[C@H](CC(=O)O)NC(C)=O)C(=O)N[C@H](C(=O)NCC(=O)N[C@@H](C)C(=O)N[C@@H](C)C(=O)N[C@@H](Cc1c[nH]c2ccccc12)C(=O)N[C@@H](CC(=O)O)C(=O)N[C@@H](Cc1ccc(O)cc1)C(=O)N[C@@H](CCCCN)C(=O)N[C@@H](Cc1ccc(O)cc1)C(N)=O)C(C)C [B5.3] (Ac-D[hLeu]IVGAAWDYKY-NH2) | > 5
Ac-RVFVFVGAAWDYKY-NH2 [B2.21] | 12.7
CCCC[C@H](NC(=O)[C@@H](NC(=O)[C@H](CCCNC(=N)N)NC(C)=O)C(C)C)C(=O)N[C@@H](CCCNC(=N)N)C(=O)N[C@H](C(=O)N[C@@H](CCC(=O)O)C(=O)NCC(=O)N[C@@H](C)C(=O)N[C@@H](C)C(=O)N[C@@H](Cc1c[nH]c2ccccc12)C(=O)N[C@@H](CC(=O)O)C(=O)N[C@@H](Cc1ccc(O)cc1)C(=O)N[C@@H](CCCCN)C(=O)N[C@@H](Cc1ccc(O)cc1)C(N)=O)[C@@H](C)CC [B4.6] (Ac-RV[Nle]RIEGAAWDYKY-NH2) | > 5
Ac-LVIVGAAWDYKR-NH2 [B3.4] | 21
CCCC[C@H](NC(C)=O)C(=O)N[C@H](C(=O)N[C@H](C(=O)N[C@H](C(=O)NCC(=O)N[C@@H](C)C(=O)N[C@@H](C)C(=O)N[C@@H](Cc1c[nH]c2ccccc12)C(=O)N[C@@H](CC(=O)O)C(=O)N[C@@H](Cc1ccc(O)cc1)C(=O)N[C@@H](CCCCN)C(=O)N[C@@H](Cc1ccc(O)cc1)C(N)=O)C(C)C)[C@@H](C)CC)C(C)C [B4.1] (Ac-[Nle]VIVGAAWDYKY-NH2) | > 5
CCCC[C@H](N)C(=O)N[C@H](C(=O)N[C@H](C(=O)N[C@H](C(=O)NCC(=O)N[C@@H](C)C(=O)N[C@@H](C)C(=O)N[C@@H](Cc1c[nH]c2ccccc12)C(=O)N[C@@H](CC(=O)O)C(=O)N[C@@H](Cc1ccc(O)cc1)C(=O)N[C@@H](CCCCN)C(=O)N[C@@H](CCCNC(=N)N)C(=O)O)C(C)C)[C@@H](C)CC)C(C)C [B4.14] (H-[Nle]VIVGAAWDYKR-OH; N-terminus and C-terminus assumed) | > 5
Ac-DVWVGAAWDYKY-NH2 [B5.2] | > 5
CCCC[C@H](NC(C)=O)C(=O)N[C@H](C(=O)N[C@@H](CC(C)C)C(=O)N[C@H](C(=O)N[C@H](C(=O)N[C@H](C(=O)NCC(=O)N[C@@H](C)C(=O)N[C@@H](C)C(=O)N[C@@H](Cc1c[nH]c2ccccc12)C(=O)N[C@@H](CC(=O)O)C(=O)N[C@@H](Cc1ccc(O)cc1)C(=O)N[C@@H](CCCCN)C(=O)N[C@@H](CCCNC(=N)N)C(N)=O)C(C)C)[C@@H](C)CC)C(C)C)C(C)C [B2.5] (Ac-[Nle]VLVIVGAAWDYKR-NH2) | 11
IVGAAWDYKY [B3.12] | > 50
CCCC[C@H](NC(=O)[C@@H](NC(=O)[C@@H](N)CCCNC(=N)N)C(C)C)C(=O)N[C@H](C(=O)N[C@H](C(=O)N[C@H](C(=O)NCC(=O)N[C@@H](C)C(=O)N[C@@H](C)C(=O)N[C@@H](Cc1c[nH]c2ccccc12)C(=O)N[C@@H](CC(=O)O)C(=O)N[C@@H](Cc1ccc(O)cc1)C(=O)N[C@@H](CCCCN)C(=O)O)C(C)C)[C@@H](C)CC)C(C)C [B4.5] (H-RV[Nle]VIVGAAWDYK-OH; N-terminus and C-terminus assumed) | > 5
Ac-LVWVGAAWDRKY-NH2 [B3.19] | 5
CC(=O)N[C@@H](CCC(C)C)C(=O)N[C@H](C(=O)N[C@@H](CCC(C)C)C(=O)N[C@H](C(=O)NCC(=O)N[C@@H](C)C(=O)N[C@@H](C)C(=O)N[C@@H](Cc1c[nH]c2ccccc12)C(=O)N[C@@H](CC(=O)O)C(=O)N[C@@H](Cc1ccc(O)cc1)C(=O)N[C@@H](CCCCN)C(=O)N[C@@H](Cc1ccc(O)cc1)C(N)=O)C(C)C)C(C)C [B3.3] (Ac-[hLeu]V[hLeu]VGAAWDYKY-NH2) | 35
KRVLVIVGAAWDYKYE [B2.35] | 10
Ac-RVLVIVGAALDYKY-NH2 [B2.30] | 35
Ac-LVIVGAAWDYK-NH2 [B3.14] | > 5
CCCC[C@H](NC(C)=O)C(=O)N[C@H](C(=O)N[C@@H](Cc1c[nH]c2ccccc12)C(=O)N[C@H](C(=O)NCC(=O)N[C@@H](C)C(=O)N[C@@H](C)C(=O)N[C@@H](Cc1c[nH]c2ccccc12)C(=O)N[C@@H](CC(=O)O)C(=O)N[C@@H](Cc1ccc(O)cc1)C(=O)N[C@@H](CCCCN)C(=O)N[C@@H](Cc1ccc(O)cc1)C(N)=O)C(C)C)C(C)C [B4.11] (Ac-[Nle]VWVGAAWDYKY-NH2) | > 5
CCCC[C@H](NC(=O)[C@@H](NC(=O)[C@H](CCCNC(=N)N)NC(C)=O)C(C)C)C(=O)N[C@H](C(=O)N[C@H](C(=O)N[C@H](C(=O)NCC(=O)N[C@@H](C)C(=O)N[C@@H](CCCN)C(=O)N[C@@H](Cc1c[nH]c2ccccc12)C(=O)N[C@@H](CC(=O)O)C(=O)N[C@@H](Cc1ccc(O)cc1)C(=O)N[C@@H](CCCCN)C(=O)N[C@@H](Cc1ccc(O)cc1)C(N)=O)C(C)C)[C@@H](C)CC)C(C)C [B4.9] (Ac-RV[Nle]VIVGA[Orn]WDYKY-NH2) | 5
CC[C@H](C)[C@H](NC(=O)[C@@H](NC(=O)[C@H](CC(C)C)NC(=O)[C@@H](NC(=O)[C@H](CCCNC(=N)N)NC(C)=O)C(C)C)C(C)C)C(=O)N[C@H](C(=O)NCC(=O)N[C@@H](C)C(=O)N[C@@H](C)C(=O)N[C@@H](CCC(C)C)C(=O)N[C@@H](CC(=O)O)C(=O)N[C@@H](Cc1ccc(O)cc1)C(=O)N[C@@H](CCCCN)C(=O)N[C@@H](Cc1ccc(O)cc1)C(N)=O)C(C)C [B2.32] (Ac-RVLVIVGAA[hLeu]DYKY-NH2) | 22
